Assay [1] has as its target 5-HT1A receptor (Homo sapiens (Human), UniProt P08908). Description: 5-HT1A receptor competition binding assay (SPA, [3H]-8-OH-DPAT). Particulars: membranes of CHO cells expressing 5-HT1A receptors; radioligand [3H]-8-OH-DPAT 0.15-0.2 nM. An excerpt: (§1) Assays that were used to measure affinity of the compounds of the present invention for 5-HT1A and 5-HT1B receptors are described in J. Recept Signal Transduct. Res. 22:483-495 (2002) and Naunyn-Schmiedeberg's Arch Pharmacol. 356:328-334 (1997) and incorporated by reference herein. These assays were be used with some modifications:
(§2) For the binding assay stably transfected chinese hamster ovary (CHO) cell lines expressing 5-HT1A receptors or 5-HT1B receptors were harvested by centrifugation at 300×g for 10 min and resuspended in 10 mM Tris-HCl, 5 mM EDTA at pH 7.4. The cells were pooled, recentrifuged and resuspended before homogenisation using a Dounce homogeniser (“type B”). Cell membranes were centrifuged at 48 000×g for 10 min and then resuspended in harvesting buffer using an Ultra-Turrax T8 (IKA Labortechnik, Germany), aliquots were stored frozen in −70° C.
Frozen membrane preparations were thawed, homogenized with an Ultra-Turrax and mixed with SPA beads (YSI coated WGA, GE Healthcare/Amersham, Buckinghamshire, UK) in assay buffer containing 50 mM Tris-Base, 4 mM MgCl2, 4 mM CaCl2 (only 5-HT1B), 1 mM EDTA, and adjusted to pH 7.4 with HCl. […] The binding assays were performed in 384-well plates in a final volume of 90 μL/well with the following additions: 9 μL binding buffer; 1 μL compound/DMSO/nonspecific; 20 μL radioligand; and 60 μL beads/membrane mixture. Non-specific binding was defined by using 10 μM WAY100635 for 5-HT1A and 10 μM Methiothepin for 5-HT1B. The assay plates were incubated for 4 hours where after the plates are counted in a Wallac 1450 Microbeta Trilux counter (PerkinElmer LifeScience, US) or similar. Data from the experiments were analyzed using a four parameter logistic equation as follows: Y=Bottom+(Top-Bottom)/1+10^(LogEC50-X)nH.

Assay [2] concerns the target 5-HT1B receptor (Homo sapiens (Human), UniProt P28222). The assay is described as follows: 5-HT1B receptor competition binding assay (SPA, [3H]-GR125743). Particulars: membranes of CHO cells expressing 5-HT1B receptors; radioligand [3H]-GR125743 0.15-0.2 nM.
Description: as §1, §2
Frozen membrane preparations were thawed, homogenized with an Ultra-Turrax and mixed with SPA beads (YSI coated WGA, GE Healthcare/Amersham, Buckinghamshire, UK) in assay buffer containing 50 mM Tris-Base, 4 mM MgCl2, 4 mM CaCl2 (only 5-HT1B), 1 mM EDTA, and adjusted to pH 7.4 with HCl. The beads/membrane solution, final concentration 100 pM receptors for 5-HT1A, 300 pM receptors for 5-HT1B and 0.5 mg SPA beads/well, was pre-incubated in room temperature with stirring for 30-60 min. […] Five (log interval, 10 μM to 1 nM, final concentration) or ten serial dilutions (½-log interval, 10 μM to 0.32 nM, final concentration) of compounds were prepared in DMSO from 10 mM stock solutions. The binding assays were performed in 384-well plates in a final volume of 90 μL/well with the following additions: 9 μL binding buffer; 1 μL compound/DMSO/nonspecific; 20 μL radioligand; and 60 μL beads/membrane mixture. Non-specific binding was defined by using 10 μM WAY100635 for 5-HT1A and 10 μM Methiothepin for 5-HT1B. The assay plates were incubated for 4 hours where after the plates are counted in a Wallac 1450 Microbeta Trilux counter (PerkinElmer LifeScience, US) or similar. Data from the experiments were analyzed using a four parameter logistic equation as follows: Y=Bottom+(Top-Bottom)/1+10^(LogEC50-X)nH.
• Jerning E., Rosqvist S., Mohell N. (2002) NAD-299 antagonises 5-HT-stimulated and Spiperone-inhibited [^35S]GTPγS binding in cloned 5-HT1A receptors. J Recept Signal Transduct Res 22:483-495. • Doménech T., Beleta J., Palacios J. M. (1997) Characterization of human serotonin 1D and 1B receptors using [^3H]-GR-125743, a novel radiolabelled serotonin 5HT1D/1B receptor antagonist. Naunyn-Schmiedeberg's Arch Pharmacol 356:328-334.

Broadly, the pKi is −log10 of the Ki, conventionally taken in molar units. High values mean a low Ki, low ones a high Ki.

pKi: −log10 of the molar value.

Sequence of 5-HT1A receptor (P08908 whole entry): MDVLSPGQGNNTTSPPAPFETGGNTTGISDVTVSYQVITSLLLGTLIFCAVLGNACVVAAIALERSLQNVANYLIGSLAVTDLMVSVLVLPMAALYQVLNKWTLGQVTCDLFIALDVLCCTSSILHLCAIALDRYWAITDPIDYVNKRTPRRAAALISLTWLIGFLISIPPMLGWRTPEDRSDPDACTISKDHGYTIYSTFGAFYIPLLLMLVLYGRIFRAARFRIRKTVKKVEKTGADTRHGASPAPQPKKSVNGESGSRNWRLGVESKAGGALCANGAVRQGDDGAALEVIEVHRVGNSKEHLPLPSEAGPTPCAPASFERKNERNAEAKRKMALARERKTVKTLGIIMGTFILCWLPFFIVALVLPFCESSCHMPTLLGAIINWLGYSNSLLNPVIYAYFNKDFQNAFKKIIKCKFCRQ
Sequence of 5-HT1B receptor (P28222 whole entry): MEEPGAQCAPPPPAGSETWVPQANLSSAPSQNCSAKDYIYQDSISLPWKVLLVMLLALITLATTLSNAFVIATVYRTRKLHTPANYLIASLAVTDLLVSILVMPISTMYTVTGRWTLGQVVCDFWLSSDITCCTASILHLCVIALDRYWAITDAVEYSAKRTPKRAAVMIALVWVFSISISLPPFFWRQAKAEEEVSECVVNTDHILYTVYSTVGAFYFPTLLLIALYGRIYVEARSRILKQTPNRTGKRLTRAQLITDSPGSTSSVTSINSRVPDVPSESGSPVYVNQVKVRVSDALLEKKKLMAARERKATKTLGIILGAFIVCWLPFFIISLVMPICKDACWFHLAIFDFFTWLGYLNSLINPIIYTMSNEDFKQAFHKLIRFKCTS

For `N#Cc1ccc(CNC(=O)c2cc3cccc(N4CCN(CCc5ccccn5)CC4)c3o2)cn1` [Example 20, N-((6-Cyanopyridin-3-yl)methyl)-7-(4-(2-(pyridin-2-yl)ethyl)piperazin-1-yl)benzofuran-2-carboxamide], the pKi in assay [1] was 8.96; in assay [2] it was 8.12.
In the same order, the values of `CN(Cc1cccnc1)C(=O)c1cc2cccc(N3CCN(CCc4ccccn4)CC3)c2o1` [Example 21, N-Methyl-7-(4-(2-(pyridin-2-yl)ethyl)piperazin-1-yl)-N-(pyridin-3-ylmethyl)benzofuran-2-carboxamide] are 8.59 and 7.20.
In the same order, the values of `N#Cc1cccc(CNC(=O)c2cc3cccc(N4CCN(CCc5ccccn5)CC4)c3o2)c1` [Example 22, N-(3-Cyanobenzyl)-7-(4-(2-(pyridin-2-yl)ethyl)piperazin-1-yl)benzofuran-2-carboxamide] are 9.04 and 8.04.
Regarding `O=C(c1cc2cccc(N3CCN(CCc4ccccn4)CC3)c2o1)N1CCN(c2nccs2)CC1` [Example 23, (7-(4-(2-(Pyridin-2-yl)ethyl)piperazin-1-yl)benzofuran-2-yl)(4-(thiazol-2-yl)piperazin-1-yl)methanone], the pKi in assay [1] was 8.38; in assay [2], 8.85.
With `COc1cccnc1N1CCC(NC(=O)c2cc3cccc(N4CCN(CCc5ccccn5)CC4)c3o2)CC1` [Example 24, N-(1-(3-Methoxypyridin-2-yl)piperidin-4-yl)-7-(4-(2-(pyridin-2-yl)ethyl)piperazin-1-yl)benzofuran-2-carboxamide], the pKi is 9.38 in assay [1] and 9.25 in assay [2].
In the same order, the values of `CN(Cc1ccccn1)C(=O)c1cc2cccc(N3CCN(CCc4ccccn4)CC3)c2o1` [Example 25, N-Methyl-7-(4-(2-(pyridin-2-yl)ethyl)piperazin-1-yl)-N-(pyridin-2-ylmethyl)benzofuran-2-carboxamide] are 8.54 and 7.51.
`COc1cccc(CNC(=O)c2cc3cccc(N4CCN(CCc5ccccn5)CC4)c3o2)c1` [Example 26, N-(3-Methoxybenzyl)-7-(4-(2-(pyridin-2-yl)ethyl)piperazin-1-yl)benzofuran-2-carboxamide]: the pKi in assay [1] was 9.04; in assay [2] it was 8.64.
Regarding `O=C(NC1(c2ccccn2)CC1)c1cc2cccc(N3CCN(CCc4ccccn4)CC3)c2o1` [Example 27, N-(1-(Pyridin-2-yl)cyclopropyl)-7-(4-(2-(pyridin-2-yl)ethyl)piperazin-1-yl)benzofuran-2-carboxamide], the pKi in assay [1] was 8.64; in assay [2] it was 7.46.
Consider `COc1ccc(CNC(=O)c2cc3cccc(N4CCN(CCc5ccccn5)CC4)c3o2)cc1` [Example 28, N-(4-Methoxybenzyl)-7-(4-(2-(pyridin-2-yl)ethyl)piperazin-1-yl)benzofuran-2-carboxamide], for which the pKi in assay [1] was 9.07; in assay [2] it was 9.00.
The corresponding values for `Cc1ccnc(CCNC(=O)c2cc3cccc(N4CCN(CCc5ccccn5)CC4)c3o2)n1` [Example 29, N-(2-(4-Methylpyrimidin-2-yl)ethyl)-7-(4-(2-(pyridin-2-yl)ethyl)piperazin-1-yl)benzofuran-2-carboxamide] are 8.70 and 7.72.
Take `O=C(NCC1CCOCC1)c1cc2cccc(N3CCN(CCc4ccccn4)CC3)c2o1` [Example 31, 7-(4-(2-(Pyridin-2-yl)ethyl)piperazin-1-yl)-N-((tetrahydro-2H-pyran-4-yl)methyl)benzofuran-2-carboxamide]: the pKi is 8.82 in assay [1] and 7.30 in assay [2].
The corresponding values for `CC(NC(=O)c1cc2cccc(N3CCN(CCc4ccccn4)CC3)c2o1)c1ccnn1C` (stereo not shown) [Example 32, N-(1-(1-Methyl-1H-pyrazol-5-yl)ethyl)-7-(4-(2-(pyridin-2-yl)ethyl)piperazin-1-yl)benzofuran-2-carboxamide] are 7.92 and 6.55.
In the case of `Cc1ccc(C(C)NC(=O)c2cc3cccc(N4CCN(CCc5ccccn5)CC4)c3o2)cn1` (stereo not shown) [Example 33, N-(1-(6-Methylpyridin-3-yl)ethyl)-7-(4-(2-(pyridin-2-yl)ethyl)piperazin-1-yl)benzofuran-2-carboxamide], the values for the pKi in assay [1] and in assay [2] were 8.68 and 7.36, respectively.
For the compound `Cc1ncc(CNC(=O)c2cc3cccc(N4CCN(CCc5ccccn5)CC4)c3o2)cn1` [Example 34, N-((2-Methylpyrimidin-5-yl)methyl)-7-(4-(2-(pyridin-2-yl)ethyl)piperazin-1-yl)benzofuran-2-carboxamide], the pKi in assay [1] is 8.42; in assay [2] it was 7.42.
As to `O=C(NCc1cccnc1)c1cc2cccc(N3CCN(CCc4ccccn4)CC3)c2o1` [Example 35, 7-(4-(2-(Pyridin-2-yl)ethyl)piperazin-1-yl)-N-(pyridin-3-ylmethyl)benzofuran-2-carboxamide], the pKi in assay [1] is 8.70; in assay [2] it was 7.47.
In the case of `O=C(c1cc2cccc(N3CCN(CCc4ccccn4)CC3)c2o1)N1CC(Oc2cccnc2)C1` [Example 36, (7-(4-(2-(Pyridin-2-yl)ethyl)piperazin-1-yl)benzofuran-2-yl)(3-(pyridin-3-yloxy)azetidin-1-yl)methanone], the negative logarithm of the Ki (pKi) in assay [1] was 8.72; in assay [2] it was 9.34.
`O=C(NCc1cccc(O)c1)c1cc2cccc(N3CCN(CCc4ccccn4)CC3)c2o1` [Example 37, N-(3-Hydroxybenzyl)-7-(4-(2-(pyridin-2-yl)ethyl)piperazin-1-yl)benzofuran-2-carboxamide]: the pKi in assay [1] was 9.64; in assay [2], 8.46.
With `CC(=O)N1CCc2cc(CCN3CCN(c4cccc5cc(C(=O)N(C)C)oc45)CC3)ccc21` [Example 38, 7-(4-(2-(1-Acetylindolin-5-yl)ethyl)piperazin-1-yl)-N,N-dimethylbenzofuran-2-carboxamide], the results for the pKi in assay [1] and in assay [2] were 10.19 and 8.80, respectively.
In the case of `Cc1ccc(CCN2CCN(c3cccc4cc(C(=O)N(C)C)oc34)CC2)nc1` [Example 40, N,N-dimethyl-7-(4-(2-(5-methylpyridin-2-yl)ethyl)piperazin-1-yl)benzofuran-2-carboxamide], the pKi in assay [1] was 9.85; in assay [2] it was 8.89.
With `CN(C)C(=O)c1cc2cccc(N3CCN(CCc4cccc(C(F)(F)F)n4)CC3)c2o1` [Example 42, N,N-dimethyl-7-(4-(2-(6-(trifluoromethyl)pyridin-2-yl)ethyl)piperazin-1-yl)benzofuran-2-carboxamide], the pKi in assay [1] was 9.19; in assay [2], 8.15.
For `CC(=O)c1ccc(CCN2CCN(c3cccc4cc(C(=O)N(C)C)oc34)CC2)nc1` [Example 43, 7-(4-(2-(5-Acetylpyridin-2-yl)ethyl)piperazin-1-yl)-N,N-dimethylbenzofuran-2-carboxamide], the figures for the pKi in assay [1] and in assay [2] were 9.48 and 8.70, respectively.
As to `CC(=O)Nc1ccc(CCN2CCN(c3cccc4cc(C(=O)N(C)C)oc34)CC2)nc1` [Example 44, 7-(4-(2-(5-Acetamidopyridin-2-yl)ethyl)piperazin-1-yl)-N,N-dimethylbenzofuran-2-carboxamide], the values for the pKi in assay [1] and in assay [2] were 8.43 and 7.70, respectively.
As to `COc1cccc(CCN2CCN(c3cccc4cc(C(=O)N(C)C)oc34)CC2)n1` [Example 46, 7-(4-(2-(6-Methoxypyridin-2-yl)ethyl)piperazin-1-yl)-N,N-dimethylbenzofuran-2-carboxamide], the pKi was 8.89 in assay [1] and 8.85 in assay [2].

These data come from patent US8859534B2, “2-carboxamide-7-piperazinyl-benzofuran derivatives” (AstraZeneca AB, priority 2009, dated 2014).
